What was measured:
HIV-1IIIB [1] = assay: Anti-HIV-1 activity, syncytia (CPE) count in C8166 cells; format: cell-based; settings: Human immunodeficiency virus 1
CYP1A2 = target: T1, CYP1A2 (Homo sapiens, UniProt P05177); assay: Cytochrome P450 inhibition, human liver microsomes, phenacetin
T1 sequence (P05177 1-516): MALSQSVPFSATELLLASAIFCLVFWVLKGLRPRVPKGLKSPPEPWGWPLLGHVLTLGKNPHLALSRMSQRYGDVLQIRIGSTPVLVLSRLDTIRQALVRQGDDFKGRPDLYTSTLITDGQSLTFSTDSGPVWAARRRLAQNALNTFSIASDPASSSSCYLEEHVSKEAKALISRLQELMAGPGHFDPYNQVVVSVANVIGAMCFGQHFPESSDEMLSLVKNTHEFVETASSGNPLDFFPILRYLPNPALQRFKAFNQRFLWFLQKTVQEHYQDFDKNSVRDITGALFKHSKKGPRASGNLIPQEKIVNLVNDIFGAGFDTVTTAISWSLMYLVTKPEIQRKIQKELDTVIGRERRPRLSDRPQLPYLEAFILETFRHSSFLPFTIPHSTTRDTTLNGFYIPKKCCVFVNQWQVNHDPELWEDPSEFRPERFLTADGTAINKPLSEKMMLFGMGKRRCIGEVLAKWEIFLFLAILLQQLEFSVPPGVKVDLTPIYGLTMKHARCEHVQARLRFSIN

[2] = Cytotoxicity, MTT assay, C8166 cells; format: cell-based; settings: human, three days, read-out: CC50 (Mean ± SD)
CYP3A4M = CYP3A4M (Homo sapiens, UniProt P08684); assay: Cytochrome P450 inhibition, human liver microsomes, midazolam
[3] = system: C8166 cells infected with HIV-1IIIB or TZM-bl cells infected with HIV-1YU-2; assay: Combination antiviral activity assay (CompuSyn CI and DRI); format: cell-based
[4] = Cytotoxicity, MTT assay, H9/HIV-1IIIB cells; format: cell-based; settings: human, three days, read-out: CC50 (Mean ± SD)
CYP2C19 = CYP2C19 (Homo sapiens, UniProt P33261); assay: Cytochrome P450 inhibition, human liver microsomes, S-mephenytoin
HIV-1Yu-2(G140S/Q148H) = assay: microbe, parasite or virus in culture; format: cell-based; settings: Human immunodeficiency virus 1, TZM-bl
[5] = Acute toxicity, single intragastric dose; format: in vivo; settings: male and female BALB/C mice
CYP2D6 = CYP2D6 (Homo sapiens, UniProt P10635); assay: Cytochrome P450 inhibition, human liver microsomes, dextromethorphan
[6] = Cytotoxicity, MTT assay, PBMCs; format: cell-based; settings: human, PBMC, seven days, read-out: CC50 (Mean ± SD)
CYP2C9 = CYP2C9 (Homo sapiens, UniProt P11712); assay: Cytochrome P450 inhibition, human liver microsomes, diclofenac
HIV-1IIIB [7] = assay: Anti-HIV-1 activity, MTT protection of MT-4 cells; format: cell-based; settings: Human immunodeficiency virus 1, MT4, MT-4, MTT
[8] = Cytotoxicity, MTT assay, MT-4 cells; format: cell-based; settings: human, three days, read-out: CC50 (Mean ± SD)
HIV-1IIIB [9] = assay: Anti-HIV-1 activity in the presence of human serum, p24 in C8166; settings: Human immunodeficiency virus 1, C8166, HIV-1IIIB
[10] = system: HIV-1IIIB chronically infected H9 cells; assay: HIV-1 replication in chronically infected H9/HIV-1IIIB cells, p24; format: cell-based
[11] = single drug in combination K-5a2+3TC
[12] = single drug in combination K-5a2+AZT
[13] = single drug in combination K-5a2+DC521022
[14] = single drug in combination K-5a2+DRV
[15] = single drug in combination K-5a2+DTG
[16] = single drug in combination K-5a2+ETR
[17] = single drug in combination K-5a2+FTC
[18] = single drug in combination K-5a2+MVC
[19] = single drug in combination K-5a2+RAL
[20] = single drug in combination K-5a2+T-20
[21] = single drug in combination K-5a2+TDF

Chain of CYP2D6 (P10635 whole entry): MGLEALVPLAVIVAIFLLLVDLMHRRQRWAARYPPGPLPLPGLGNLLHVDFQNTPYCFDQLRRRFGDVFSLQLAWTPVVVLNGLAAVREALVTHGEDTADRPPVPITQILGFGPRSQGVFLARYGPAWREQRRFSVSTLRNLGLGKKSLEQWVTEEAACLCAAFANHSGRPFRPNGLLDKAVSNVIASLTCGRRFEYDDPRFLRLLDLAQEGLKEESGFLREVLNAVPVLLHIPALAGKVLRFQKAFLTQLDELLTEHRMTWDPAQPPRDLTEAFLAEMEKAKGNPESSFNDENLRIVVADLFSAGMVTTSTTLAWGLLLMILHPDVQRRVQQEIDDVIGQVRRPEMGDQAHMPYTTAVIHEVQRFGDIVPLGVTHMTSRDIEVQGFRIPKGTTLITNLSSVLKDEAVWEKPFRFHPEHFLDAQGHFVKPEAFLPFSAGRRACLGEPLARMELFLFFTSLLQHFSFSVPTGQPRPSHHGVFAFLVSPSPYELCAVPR
Chain of CYP2C19 (P33261 whole entry): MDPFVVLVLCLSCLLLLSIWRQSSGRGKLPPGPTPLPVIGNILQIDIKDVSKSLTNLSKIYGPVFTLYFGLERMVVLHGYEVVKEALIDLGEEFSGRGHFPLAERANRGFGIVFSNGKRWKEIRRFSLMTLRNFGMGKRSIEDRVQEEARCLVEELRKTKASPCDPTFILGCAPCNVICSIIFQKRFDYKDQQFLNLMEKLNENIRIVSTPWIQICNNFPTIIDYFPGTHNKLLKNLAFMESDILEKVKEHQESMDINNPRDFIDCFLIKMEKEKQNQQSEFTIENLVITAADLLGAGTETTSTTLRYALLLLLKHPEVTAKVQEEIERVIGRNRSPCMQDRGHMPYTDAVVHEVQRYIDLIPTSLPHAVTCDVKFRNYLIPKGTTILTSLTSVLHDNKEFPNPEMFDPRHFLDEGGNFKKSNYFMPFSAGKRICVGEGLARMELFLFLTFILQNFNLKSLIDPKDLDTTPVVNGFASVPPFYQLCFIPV
Chain of CYP3A4M (P08684 whole entry): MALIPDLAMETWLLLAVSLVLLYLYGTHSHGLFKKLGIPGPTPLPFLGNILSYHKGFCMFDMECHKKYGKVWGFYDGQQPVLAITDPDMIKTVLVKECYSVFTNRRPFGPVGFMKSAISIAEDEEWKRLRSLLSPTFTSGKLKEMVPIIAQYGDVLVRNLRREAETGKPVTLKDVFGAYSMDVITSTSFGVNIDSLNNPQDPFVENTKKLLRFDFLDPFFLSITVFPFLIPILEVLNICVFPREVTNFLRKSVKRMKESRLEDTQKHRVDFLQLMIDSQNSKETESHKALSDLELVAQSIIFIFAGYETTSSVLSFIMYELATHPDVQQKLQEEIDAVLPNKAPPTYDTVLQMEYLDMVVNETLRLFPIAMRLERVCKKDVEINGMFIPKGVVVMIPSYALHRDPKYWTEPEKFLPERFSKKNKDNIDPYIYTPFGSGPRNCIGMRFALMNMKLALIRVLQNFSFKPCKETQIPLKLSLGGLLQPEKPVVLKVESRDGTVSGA
Chain of CYP2C9 (P11712 whole entry): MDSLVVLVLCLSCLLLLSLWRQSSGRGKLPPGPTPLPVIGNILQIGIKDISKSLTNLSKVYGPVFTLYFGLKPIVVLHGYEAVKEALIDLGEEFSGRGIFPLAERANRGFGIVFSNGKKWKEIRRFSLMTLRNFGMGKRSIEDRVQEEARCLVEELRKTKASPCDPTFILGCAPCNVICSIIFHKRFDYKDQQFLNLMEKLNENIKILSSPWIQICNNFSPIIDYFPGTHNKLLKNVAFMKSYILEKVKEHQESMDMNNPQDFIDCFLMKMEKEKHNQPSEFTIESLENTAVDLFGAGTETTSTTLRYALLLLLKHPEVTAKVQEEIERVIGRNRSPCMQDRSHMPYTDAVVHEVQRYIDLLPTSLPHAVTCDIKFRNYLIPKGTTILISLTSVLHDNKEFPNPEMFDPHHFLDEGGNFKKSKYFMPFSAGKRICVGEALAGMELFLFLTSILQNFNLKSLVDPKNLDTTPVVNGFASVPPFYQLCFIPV

**Q.** Which results are given for Cc1cc(C#N)cc(C)c1Oc1nc(NC2CCN(Cc3ccc(S(N)(=O)=O)cc3)CC2)nc2ccsc12 [K-5a2]?
**A.** EC50 (HIV-1IIIB [1]): 0.00188 ± 0.00087 µM; IC50 (CYP1A2): > 50 µM; CC50 at 3 days [2]: > 50 µM; IC50 (CYP3A4M): 18.9 µM; DRI Value ED75 [3, 11]: 2.79 ± 0.14; DRI Value ED90 [3, 11]: 2.81 ± 0.58; DRI Value ED95 [3, 11]: 2.85 ± 0.93; DRI Value ED75 [3, 12]: 13.26 ± 9.86; DRI Value ED90 [3, 12]: 7.60 ± 3.58; DRI Value ED95 [3, 12]: 5.48 ± 2.08; DRI Value ED75 [3, 13]: 1.61 ± 0.50; DRI Value ED90 [3, 13]: 1.71 ± 0.48; DRI Value ED95 [3, 13]: 1.78 ± 0.47; DRI Value ED75 [3, 14]: 2.26 ± 0.28; DRI Value ED90 [3, 14]: 2.57 ± 0.19; DRI Value ED95 [3, 14]: 2.85 ± 0.57; DRI Value ED75 [3, 15]: 1.69 ± 0.37; DRI Value ED90 [3, 15]: 1.94 ± 0.10; DRI Value ED95 [3, 15]: 2.19 ± 0.50; DRI Value ED75 [3, 16]: 1.47 ± 0.24; DRI Value ED90 [3, 16]: 1.40 ± 0.12; DRI Value ED95 [3, 16]: 1.35 ± 0.07; DRI Value ED75 [3, 17]: 5.00 ± 0.71; DRI Value ED90 [3, 17]: 3.58 ± 0.51; DRI Value ED95 [3, 17]: 2.85 ± 0.41; DRI Value ED75 [3, 18]: 1.30 ± 0.17; DRI Value ED90 [3, 18]: 1.28 ± 0.15; DRI Value ED95 [3, 18]: 1.27 ± 0.15; DRI Value ED75 [3, 19]: 2.45 ± 0.95; DRI Value ED90 [3, 19]: 2.47 ± 0.85; DRI Value ED95 [3, 19]: 2.49 ± 0.79; DRI Value ED75 [3, 20]: 5.13 ± 0.38; DRI Value ED90 [3, 20]: 4.68 ± 0.43; DRI Value ED95 [3, 20]: 4.43 ± 0.75; DRI Value ED75 [3, 21]: 2.30 ± 0.73; DRI Value ED90 [3, 21]: 2.15 ± 0.47; DRI Value ED95 [3, 21]: 2.06 ± 0.33; CC50 at 3 days [4]: 28.1 ± 5.03 µM; IC50 (CYP2C19): > 50 µM; EC50 (HIV-1Yu-2(G140S/Q148H)): 0.00026 ± 0.00028 µM; MTD ([5]; both, mouse, in vivo, po, 5000 mg/kg, single gavage dose, read-out: Maximum tolerated dose): > 5000 mg/kg; Clinical symptoms and body weight ([5]; single gavage dose of 5000 mg/kg): no obvious clinical symptoms and no obvious abnormalities in body weight; IC50 (CYP2D6): > 50 µM; CC50 at 7 days [6]: 39.7 ± 6.29 µM; IC50 (CYP2C9): > 50 µM; EC50 (HIV-1IIIB [7]): 0.00174 ± 0.00011 µM; CC50 at 3 days [8]: 26.6 ± 2.03 µM; EC50 (HIV-1IIIB [9]; C8166, p24, 20% human serum): 0.00783 ± 0.00173 µM; EC50 (HIV-1IIIB [9]; C8166, p24, 40% human serum): 0.00787 ± 0.00601 µM; EC50 ([10]; Human immunodeficiency virus 1, HIV-1IIIB, H9/HIV-1IIIB chronically infected, p24): > 50 µM; Inhibition of HIV-1 replication in HIV-1IIIB chronically infected H9 cells ([10]; at a concentration of 50.00 µM): could not inhibit the replication
